These results are taken from patent US20240075000A1 (priority 2021, published 2024).

Counter-ions that a name gives are not always drawn.

One data set has as its system patient. The data set is described as follows: one-year high-dose tolerability in a patient. The format is in vivo, human. The settings on record: up to 6,000 mg/day for one year in a patient.
Data set [1] deals with Amyotrophic Lateral Sclerosis (ALS) patients. The data set can be described thus: Phase 1 clinical trial in ALS, patient testimonials. The format is in vivo, human. The settings on record: 1000 mg BID, dose taken without food; went away on eating. Here is the method:
A Phase 1 clinical trial was conducted with the Inventor supplying the anhydrous enol-oxaloacetate drug. Typically, Phase 1 clinical trials focus on the safety of a proposed drug, but patient response efficacy is also important and is noted. […] My name is […]. I was diagnosed with Bulbar onset ALS by Dr. Jawdat at the KU Medical Center in Kansas City KS on Oct. 14, 2020. […] I have muscle fasciculations pretty much all over my body at times and most are constant. The first 4 to 5 days taking the supplement, I did feel like they intensified an hour to two hours after taking it, and it lasted for approximately an hour or two. After those 4 or 5 days, it went back to the normal strength. At approximately the third week of taking the supplement I began to notice my tongue movement had better range of motion. I could see it pushing out the side of my cheek, I couldn't get it over there before. I also have felt like my left hand has gained a little strength and grip and I feel like I have a bit more strength in my left wrist. I do however feel like most things are still declining, but with such a short time of trying the supplement, I want to keep taking it to see if things can keep improving/changing. I am currently not on any ALS medications but do take some vitamins. • Patient 2. My spouse, Nathan, was part of a study with oxaloacetate for ALS. […]

Data set [2] relates to post-COVID-19 fatigue patient. The data set can be described thus: post-COVID-19 fatigue case (Example 5). The settings on record: 500 mg BID. The format is in vivo, human. Here is the method: Afterwards, although their fever was resolved, they experienced fatigue so extreme that it was difficult for them to walk to the bathroom. They started taking 500 mg anhydrous enol-oxaloacetate BID for 45 days. Within 3 days 80% of fatigue was resolved. After 30 days, 100% of their fatigue was resolved.

For data set [3], the system named is post-COVID-19 fatigue patient. The data set can be described thus: post-COVID-19 fatigue case, physician (Example 3). As to conditions: 500 mg BID; for Visual Fatigue Score: baseline 3, range 0 worst to 10 no fatigue; for Chalder Fatigue Score: range 33 worst to 0 no fatigue; for Fatigue Severity Score: baseline 54, range 63 worst to 9 no fatigue; for PROMIS Fatigue 7a: range 35 worst to 7 no fatigue.

In the case of `O=C(O)CC(=O)C(=O)O` [anhydrous enol-oxaloacetate, hydroxy fumarate], in the data set on patient, the side effects entry is “no negative side effects”. Moreover, the “side effect noticed by the patient” value in data set [1] was “upset stomach”. Moreover, the figures for the fatigue resolved in data set [2] (after 30 days) and in data set [2] (within 3 days) were 100% and 80%, respectively. The “Visual Fatigue Score” value is listed as 10 in data set [3] (Final, Dec. 3, 2020) and 4 in data set [3] (Nov. 3, 2020). Moreover, the “Chalder Fatigue Score” value is on record as 2 in data set [3] (Final, Dec. 3, 2020, baseline 22) and 16 in data set [3] (Nov. 3, 2020, baseline Oct. 14, 2020 22). In addition, the “Fatigue Severity Score” value in data set [3] (Final, Dec. 3, 2020) came out at 20; in data set [3] (Nov. 3, 2020), 54. Moreover, the “PROMIS Fatigue 7a” value turned out to be 11 in data set [3] (Final, Dec. 3, 2020) and 25 in data set [3] (Nov. 3, 2020, baseline N/A).
